Data on one molecule can be found in ChEMBL document CHEMBL1914363, “Identification of a naturally occurring quinazolin-4(3H)-one firefly luciferase inhibitor” (J Nat Prod, 2011).

For assay [1], the target named is T1, Luciferin 4-monooxygenase (Luciola lateralis, UniProt Q01158).
T1 sequence (Q01158 whole entry): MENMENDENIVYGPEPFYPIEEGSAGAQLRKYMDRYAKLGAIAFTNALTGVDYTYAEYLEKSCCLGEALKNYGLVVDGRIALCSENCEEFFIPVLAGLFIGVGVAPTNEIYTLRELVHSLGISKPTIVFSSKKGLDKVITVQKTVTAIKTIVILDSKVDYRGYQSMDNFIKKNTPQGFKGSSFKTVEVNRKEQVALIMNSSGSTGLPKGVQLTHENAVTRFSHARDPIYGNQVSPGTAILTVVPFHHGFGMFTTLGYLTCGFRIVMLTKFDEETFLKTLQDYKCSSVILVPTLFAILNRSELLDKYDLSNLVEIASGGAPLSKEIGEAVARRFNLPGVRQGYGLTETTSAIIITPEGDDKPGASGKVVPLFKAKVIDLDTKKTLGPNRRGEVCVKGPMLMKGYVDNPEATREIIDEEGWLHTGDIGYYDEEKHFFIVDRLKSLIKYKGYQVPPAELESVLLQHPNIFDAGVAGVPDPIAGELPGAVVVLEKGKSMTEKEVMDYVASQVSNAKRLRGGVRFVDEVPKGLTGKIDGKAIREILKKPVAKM
The assay can be described thus: Inhibition of firefly luciferase by ATPlite assay in absence of AMPK. Further details: species or system Aquatica lateralis. (ATP-based viability assays read luminescence as a measure of living cells.)

Assay [2] has as its target T2, Luciferin 4-monooxygenase (Luciola lateralis) (UniProt Q01158).
T2 sequence (whole entry): T1 sequence (Q01158 whole entry)
The assay can be described thus: Inhibition of firefly luciferase by ATPlite assay in presence of AMPK. To be noted: Aquatica lateralis.

The source made the active and inactive calls. The rule behind the calls is not given here.

Consider `CNc1ccc(-c2nc3ccccc3c(=O)[nH]2)cc1`, for which the EC50 in assay [1] stood at 730 nM. In addition, the inhibition result in assay [2] is “Active”.

The EC50 is the concentration that produces a half-maximal response.
